Reference: PMC10743905, “Design, Synthesis, and In Vitro and In Vivo Bioactivity Studies of Hydrazide–Hydrazones of 2,4-Dihydroxybenzoic Acid” (International Journal of Molecular Sciences, 2023)
Values after ≈ are worked out from the molar mass of the structure shown. Like-named read-outs stand apart in the source and are kept apart here.

How the values were obtained:
[1] = tested on: Micrococcus luteus ATCC 10240; assay: Broth microdilution MIC/MBC; type: cell-based; settings: for MBC: ATCC10240; for MIC: ATCC10240, read-out: MIC
Source text: (§1) In vitro antimicrobial activity assays - Methodology
(§2) The examined compounds 1 - 24 were screened in vitro for antibacterial and antifungal activities using the broth microdilution method according to procedure reported earlier by our research group and European Committee on Antimicrobial Susceptibility Testing (EUCAST) and Clinical and Laboratory Standards Institute (CLSI) guidelines against a panel of reference and clinical or saprophytic strains of microorganisms, in-cluding Gram-positive bacteria, Staphylococcus aureus ATCC 43300 (Methicillin Resistant S. aureus – MRSA), Staphylococcus aureus ATCC 29213 (Methicillin Susceptible S. aureus – MSSA), Staphylococcus epidermidis ATCC 12228, Enterococcus faecalis ATCC 29212, Micro-coccus luteus ATCC 10240, Bacillus subtilis ATCC 6633 and Bacillus cereus ATCC 10876), Gram-negative bacteria (Bordetella bronchiseptica ATCC 4617, Escherichia coli ATCC 25922, Klebsiella pneumoniae ATCC 13883, Proteus mirabilis ATCC 12453, Salmonella typhimurium ATCC 14028 and Pseudomonas aeruginosa ATCC 9027) and fungi belonging to yeasts (Can-dida albicans ATCC 10231, Candida albicans ATCC 2091, Candida parapsilosis ATCC 22019, Candida glabrata ATCC 90030 and Candida krusei ATCC 14243). The microorganisms be-longing to ATCC came from American Type Culture Collection, routinely used for the evaluation of antimicrobials. […]
(§3) Samples containing examined compounds were dissolved in dimethyl sulfoxide (DMSO). […]
(§4) Subsequently, the MIC (Minimal Inhibitory Concentration) of the compounds was ex-amined by the microdilution broth method, using their two-fold dilutions in Mueller- […]
(§5) Hinton broth or (for bacteria) and RPMI 1640 broth with MOPS (for fungi) prepared in 96-well polystyrene plates. Final concentrations of the compounds ranged from 1000 to 0.488 µg/ml. Microbial suspensions were prepared in 0.85% NaCl with an optical density of 0.5 McFarland standard. Next each bacterial or fungal suspension was added per each well containing broth and various concentrations of the examined compounds. After incuba-

[2] = tested on: Proteus mirabilis ATCC 12453; assay: Broth microdilution MIC/MBC; type: cell-based; settings: ATCC12453
Source text: as §1, §2, §3, §4, §5

[3] = tested on: Pseudomonas aeruginosa ATCC 9027; assay: Broth microdilution MIC/MBC; type: cell-based; settings: ATCC9027
Source text: as §1, §2, §3, §4, §5

[4] = tested on: Salmonella typhimurium ATCC 14028; assay: Broth microdilution MIC/MBC; type: cell-based; settings: Salmonella enterica
Source text: as §1, §2, §3, §4, §5

[5] = tested on: Staphylococcus aureus ATCC 29213; assay: Broth microdilution MIC/MBC; type: cell-based
Source text: as §1, §2, §3, §4, §5

[6] = tested on: Staphylococcus aureus ATCC 43300; assay: Broth microdilution MIC/MBC; type: cell-based; settings: Staphylococcus aureus ATCC 43300 (MRSA)
Source text: as §1, §2, §3, §4, §5

[7] = tested on: Staphylococcus epidermidis ATCC 12228; assay: Broth microdilution MIC/MBC; type: cell-based; settings: for MBC: ATCC12228; for MIC: ATCC12228, read-out: MIC
Source text: as §1, §2, §3, §4, §5

[8] = tested on: Bacillus subtilis ATCC 6633; assay: Broth microdilution MIC/MBC; type: cell-based; settings: for MIC: ATCC6633, read-out: MIC
Source text: Detailed procedures are presented in the Supplementary Materials. […]
as §1
as §2, with “antimicrobials. All the used microbial cultures were first subcultured on nu-trient agar or Sabouraud agar at 35°C for 18-24 h or 30°C for 24-48 h for bacteria and fungi,” for “antimicrobials.”
(§6) The surface of Mueller-Hinton agar (for bacteria) and RPMI 1640 with MOPS (for fungi) were inoculated with the suspensions of bacterial or fungal species. Microbial suspensions were prepared in sterile saline with an optical density of McFarland standard scale 0.5.
(§7) Samples containing examined compounds were dissolved in dimethyl sulfoxide (DMSO).
(§8) Furthermore, bacterial and fungal suspensions were put onto Petri dishes with solid me-dia containing 2 mg/mL of the tested compounds followed incubation at 37°C for 24h and 30°C for 48h for bacteria and fungi, respectively. The inhibition of microbial growth was judged by comparison with a control culture prepared without any sample tested. Ciprof-loxacin, vancomycin, nitrofurantoin, cefuroxime, ampicillin or nystatin (Sigma) were used as a reference antibacterial or antifungal compounds, respectively.
as §4, §5

[9] = tested on: Bacillus cereus ATCC 10876; assay: Broth microdilution MIC/MBC; type: cell-based
Source text: as §1
as §2, with “antimicrobials. All the used microbial cultures were first subcultured on nu-trient agar or Sabouraud agar at 35°C for 18-24 h or 30°C for 24-48 h for bacteria and fungi,” for “antimicrobials.”
as §6, §7, §8, §4, §5

[10] = tested on: Bordetella bronchiseptica ATCC 4617; assay: Broth microdilution MIC/MBC; type: cell-based; settings: ATCC4617
Source text: as §1
as §2, with “antimicrobials. All the used microbial cultures were first subcultured on nu-trient agar or Sabouraud agar at 35°C for 18-24 h or 30°C for 24-48 h for bacteria and fungi,” for “antimicrobials.”
as §6, §7, §8, §4, §5

[11] = tested on: Enterococcus faecalis ATCC 29212; assay: Broth microdilution MIC/MBC; type: cell-based; settings: for MIC: ATCC29212, read-out: MIC
Source text: as §1
as §2, with “antimicrobials. All the used microbial cultures were first subcultured on nu-trient agar or Sabouraud agar at 35°C for 18-24 h or 30°C for 24-48 h for bacteria and fungi,” for “antimicrobials.”
as §6, §7, §8, §4, §5

[12] = tested on: Escherichia coli ATCC 25922; assay: Broth microdilution MIC/MBC; type: cell-based; settings: ATCC25922
Source text: as §1
as §2, with “antimicrobials. All the used microbial cultures were first subcultured on nu-trient agar or Sabouraud agar at 35°C for 18-24 h or 30°C for 24-48 h for bacteria and fungi,” for “antimicrobials.”
as §6, §7, §8, §4, §5

[13] = tested on: Klebsiella pneumoniae ATCC 13883; assay: Broth microdilution MIC/MBC; type: cell-based; settings: ATCC13883
Source text: as §1
as §2, with “antimicrobials. All the used microbial cultures were first subcultured on nu-trient agar or Sabouraud agar at 35°C for 18-24 h or 30°C for 24-48 h for bacteria and fungi,” for “antimicrobials.”
as §6, §7, §8, §4, §5

[14] = tested on: Candida albicans ATCC 10231; assay: Broth microdilution MIC/MFC; type: cell-based; settings: ATCC10231, read-out: MIC
Source text: as §1
as §2, with “antimicrobials. All the used microbial cultures were first subcultured on nu-trient agar or Sabouraud agar at 35°C for 18-24 h or 30°C for 24-48 h for bacteria and fungi,” for “antimicrobials.”
as §6, §7, §8, §4, §5

[15] = tested on: Candida albicans ATCC 2091; assay: Broth microdilution MIC/MFC; type: cell-based; settings: ATCC2091, read-out: MIC
Source text: as §1
as §2, with “antimicrobials. All the used microbial cultures were first subcultured on nu-trient agar or Sabouraud agar at 35°C for 18-24 h or 30°C for 24-48 h for bacteria and fungi,” for “antimicrobials.”
as §6, §7, §8, §4, §5

[16] = tested on: Candida glabrata ATCC 90030; assay: Broth microdilution MIC/MFC; type: cell-based; settings: Nakaseomyces glabratus, ATCC90030, read-out: MIC
Source text: as §1
as §2, with “antimicrobials. All the used microbial cultures were first subcultured on nu-trient agar or Sabouraud agar at 35°C for 18-24 h or 30°C for 24-48 h for bacteria and fungi,” for “antimicrobials.”
as §6, §7, §8, §4, §5

[17] = tested on: Candida krusei ATCC 14243; assay: Broth microdilution MIC/MFC; type: cell-based; settings: Pichia kudriavzevii, ATCC14243, read-out: MIC
Source text: as §1
as §2, with “antimicrobials. All the used microbial cultures were first subcultured on nu-trient agar or Sabouraud agar at 35°C for 18-24 h or 30°C for 24-48 h for bacteria and fungi,” for “antimicrobials.”
as §6, §7, §8, §4, §5

[18] = tested on: Candida parapsilosis ATCC 22019; assay: Broth microdilution MIC/MFC; type: cell-based; settings: for MIC: ATCC22019, read-out: MIC
Source text: as §1
as §2, with “antimicrobials. All the used microbial cultures were first subcultured on nu-trient agar or Sabouraud agar at 35°C for 18-24 h or 30°C for 24-48 h for bacteria and fungi,” for “antimicrobials.”
as §6, §7, §8, §4, §5

MBC/MIC [1]	MIC [1] [µg/mL]	MIC [2] [µg/mL]	MIC [3] [µg/mL]	MIC [4] [µg/mL]	MIC ([5]; ATCC29213) [µg/mL]	MIC [6] [µg/mL]	MBC/MIC [7]	MIC [7] [µg/mL]	MIC [8] [µg/mL]	MIC ([9]; ATCC10876, read-out: MIC) [µg/mL]	MIC [10] [µg/mL]	MIC [11] [µg/mL]	MIC [12] [µg/mL]	MIC [13] [µg/mL]	MIC [14] [µg/mL]	MIC [15] [µg/mL]	MIC [16] [µg/mL]	Structure (SMILES)	MBC [1] [µg/mL]	MBC [7] [µg/mL]	also measured
4	125 (≈ 390 µM)	> 1000	> 1000	> 1000	31.2 (≈ 97.4 µM)	15.6 (≈ 48.7 µM)	2	62.5 (≈ 195 µM)	125 (≈ 390 µM)	15.6 (≈ 48.7 µM)	> 1000	125 (≈ 390 µM)	> 1000	> 1000	> 1000	> 1000	> 1000	COc1ccc(/C=N/NC(=O)c2ccc(O)cc2O)cc1Cl [Compound 9, N-[(3-chloro-4-methoxyphenyl)methylidene]-2,4-dihydroxybenzohydrazide]	500 (≈ 1560 µM)	125 (≈ 390 µM)	MBC/MIC [5]: 1; MBC ([5]; ATCC29213): 31.2 µg/mL (≈ 97.4 µM); MBC [6]: 62.5 µg/mL (≈ 195 µM); MBC/MIC [6]: 4; MBC/MIC [8]: 4; MBC ([8]; ATCC6633): 500 µg/mL (≈ 1560 µM); MBC/MIC [9]: 4; MIC [9]: 15.62 µg/mL (≈ 48.7 µM); MBC ([9]; ATCC10876): 62.5 µg/mL (≈ 195 µM); MBC/MIC [11]: 4; MBC ([11]; ATCC29212, read-out: MBC): 500 µg/mL (≈ 1560 µM); MIC [17]: > 1000 µg/mL; MIC ([18]; Lodderomyces parapsilosis): > 1000 µg/mL; melting point: 256 °C
> 2	500 (≈ 1310 µM)	> 1000	> 1000	> 1000	> 1000	> 1000	> 1	1000 (≈ 2620 µM)	> 1000	> 1000	> 1000	> 1000	> 1000	> 1000	> 1000	> 1000	> 1000	COc1ccc(/C=N/NC(=O)c2ccc(O)cc2O)c(Br)c1O [Compound 15, N-[(2-bromo-3-hydroxy-4-methoxyphenyl)methylidene]-2,4-dihydroxybenzohydrazide]	> 1000	> 1000	MIC [17]: > 1000 µg/mL; MFC/MIC [18]: > 1; MFC ([18]; Lodderomyces parapsilosis, ATCC22019, read-out: MFC): > 1000 µg/mL; MIC ([18]; Lodderomyces parapsilosis): 1000 µg/mL (≈ 2620 µM); melting point: 244 °C
